Test results taken from patent publication US6660769B1, “N substituted 3-amino-2,2-di-c-alkyl-1,4-butyrolactones and 1,4-thiobutyrolactones for use as promoter of γ-aminobutyric acid activity and for treating nervous disorders and preparation method” (priority 1999, dated 2003).
Where “and” joins values, the source holds several entries; their conditions need not be identical. Identical values can stand only once. Like-named read-outs stand apart in the source and are kept apart here.

What was measured:
[1] = test system: picrotoxin binding site of the GABA-A receptor; settings: for IC50: read-out: IC50 of S^35-TBPS displacement
[2] = molecular target: T1, α1β2γ2 recombinant GABA-A receptors (Homo sapiens, UniProt P14867+P18507+P47870); assay: cell-based
T1 construct: expressed in transfected cells; host or cells: Xenopus laevis oocytes injected with cRNA
T1 sequence (P14867 28-456): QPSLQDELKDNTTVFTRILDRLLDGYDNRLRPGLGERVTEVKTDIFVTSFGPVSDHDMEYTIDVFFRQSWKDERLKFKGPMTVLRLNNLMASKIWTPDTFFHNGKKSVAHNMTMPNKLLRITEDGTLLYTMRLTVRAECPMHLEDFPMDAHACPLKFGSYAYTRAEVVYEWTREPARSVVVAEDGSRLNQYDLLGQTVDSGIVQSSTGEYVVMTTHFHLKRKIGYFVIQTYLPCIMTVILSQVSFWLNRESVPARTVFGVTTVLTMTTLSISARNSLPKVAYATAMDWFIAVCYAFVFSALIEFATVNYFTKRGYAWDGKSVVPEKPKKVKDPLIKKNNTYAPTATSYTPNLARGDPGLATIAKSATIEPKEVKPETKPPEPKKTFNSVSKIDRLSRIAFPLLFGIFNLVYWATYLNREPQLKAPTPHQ
T1 sequence (P47870 25-512 limits assumed): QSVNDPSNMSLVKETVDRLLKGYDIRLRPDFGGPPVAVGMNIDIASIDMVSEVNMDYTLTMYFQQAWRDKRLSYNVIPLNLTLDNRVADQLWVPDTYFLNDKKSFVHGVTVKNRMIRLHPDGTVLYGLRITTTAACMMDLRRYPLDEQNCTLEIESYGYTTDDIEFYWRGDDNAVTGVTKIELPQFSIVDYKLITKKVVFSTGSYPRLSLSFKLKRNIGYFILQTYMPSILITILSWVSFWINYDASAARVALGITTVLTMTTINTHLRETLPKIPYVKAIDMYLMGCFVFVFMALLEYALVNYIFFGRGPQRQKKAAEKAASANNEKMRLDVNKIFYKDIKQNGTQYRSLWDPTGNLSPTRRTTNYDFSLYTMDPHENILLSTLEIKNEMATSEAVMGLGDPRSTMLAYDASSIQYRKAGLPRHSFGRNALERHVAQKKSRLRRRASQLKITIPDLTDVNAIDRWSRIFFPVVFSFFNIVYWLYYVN
T1 sequence (P18507 40-475): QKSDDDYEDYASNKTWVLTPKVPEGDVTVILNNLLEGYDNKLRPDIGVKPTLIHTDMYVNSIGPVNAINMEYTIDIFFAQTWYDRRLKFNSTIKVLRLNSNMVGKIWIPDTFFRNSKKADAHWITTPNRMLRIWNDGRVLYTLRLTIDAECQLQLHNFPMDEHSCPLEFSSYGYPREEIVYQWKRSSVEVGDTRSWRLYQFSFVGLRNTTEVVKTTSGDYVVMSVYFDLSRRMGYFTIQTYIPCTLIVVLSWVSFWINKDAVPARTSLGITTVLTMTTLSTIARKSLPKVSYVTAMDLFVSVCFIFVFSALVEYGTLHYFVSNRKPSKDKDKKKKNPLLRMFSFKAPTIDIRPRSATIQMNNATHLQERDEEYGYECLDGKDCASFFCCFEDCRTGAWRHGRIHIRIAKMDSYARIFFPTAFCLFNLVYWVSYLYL

[3] = test system: benzodiazepine binding site of the GABA-A receptor; assay: [H3]flunitrazepam displacement, brain membranes
[4] = test system: GABA binding site of the GABA-A receptor; assay: [H3]muscimol displacement, brain membranes; settings: 100 μM
[5] = Solubility noted in the electrophysiological test
mice = settings: attacks induced by pentylenetetrazole and picrotoxin; cited from earlier work
[6] = molecular target: picrotoxin binding site of the GABA-A receptor; settings: published compounds; read-out: Displacement of S^35-TBPS (IC50); cited from earlier work
[7] = test system: GABA currents in cultured neurons; settings: cited from earlier work
[8] = 200 μM, α1β2γ2, read-out: % of stimulation of the GABA currents
[9] = α1β2γ2, read-out: % of stimulation of the GABA currents

3-Benzylamino-3,3-di(C-allyl)-1,4-butyrolactone [Compound 16]
Inhibition of the radiolabeled ligands % TBPS ([1]; 100 μM): 62% | % of stimulation of the GABA currents ([2]; 200 μM, α1β2γ2): +115 ± 30%

C[C@H]1C(=O)OC[C@H]1NC(=O)OCc1ccccc1 (relative stereo) [Compound 27, cis-3-benzyloxycarbonylamino-2-(C-methyl)-1,4-butyrolactone]
Inhibition of the radiolabeled ligands % Flu ([3]; 100 μM): 0% | Inhibition of the radiolabeled ligands % TBPS ([1]; 100 μM): 0% | stimulation of muscimol binding (printed in the % Muscimol inhibition column) [4]: 10% stimulation | % of stimulation of the GABA currents ([2]; 50 μM, α1β2γ2): −1 ± 2%

C[C@@H]1C(=O)OC[C@H]1NC(=O)OCc1ccccc1 (relative stereo) [Compound 28, trans-3-benzyloxycarbonylamino-2-(C-methyl)-1,4-butyrolactone]
Inhibition of the radiolabeled ligands % Flu ([3]; 100 μM): 0% | Inhibition of the radiolabeled ligands % TBPS ([1]; 100 μM): 0% | Inhibition of the radiolabeled ligands % Muscimol [4]: 0% | stimulating activities for the GABA current (in words) [2]: low stimulating activities | % of stimulation of the GABA currents ([2]; 50 μM, α1β2γ2): −7 ± 7%

C[C@@H]1C(=O)OC[C@H]1N(Cc1ccccc1)C(=O)OCc1ccccc1 (relative stereo) [Compound 42, trans-3-(N-benzyl-N-benzyloxycarboyl)amino-2-(C-methyl)-1,4-butyrolactone]
Inhibition of the radiolabeled ligands % Flu ([3]; 100 μM): 0% | Inhibition of the radiolabeled ligands % TBPS ([1]; 10 μM): 15% | Inhibition of the radiolabeled ligands % TBPS ([1]; 100 μM): 52% | % of stimulation of the GABA currents ([2]; 200 μM, α1β2γ2): +3 ± 10%

C[C@@H]1C(=O)OC[C@@H]1N(Cc1ccccc1)C(=O)OCc1ccccc1 (relative stereo) [Compound 43, cis-3-(N-benzyl-N-benzyloxycarboyl)amino-2-(C-methyl)-1,4-butyrolactone]
Inhibition of the radiolabeled ligands % Flu ([3]; 10 μM): 20% | Inhibition of the radiolabeled ligands % Flu ([3]; 100 μM): 30% | Inhibition of the radiolabeled ligands % TBPS ([1]; 10 μM): 35% | Inhibition of the radiolabeled ligands % TBPS ([1]; 100 μM): 60% | Inhibition of the radiolabeled ligands % Muscimol [4]: 0% | % of stimulation of the GABA currents ([2]; 200 μM, α1β2γ2): −3 ± 3%

O=C1CC(NC(=O)OCc2ccccc2)CO1 (centres unmarked) [Compound 26, 3-Benzyloxycarbonylamino-1,4-butyrolactone]
Inhibition of the radiolabeled ligands % Flu ([3]; 100 μM): 0% | Inhibition of the radiolabeled ligands % TBPS ([1]; 100 μM): 0% | Inhibition of the radiolabeled ligands % Muscimol [4]: 0% | stimulating activities for the GABA current (in words) [2]: low stimulating activities | % of stimulation of the GABA currents ([2]; 0.1 μM, α1β2γ2): +47 ± 90% | % of stimulation of the GABA currents ([2]; 200 μM, α1β2γ2): +47 ± 9%

CCCC1(CCC)C(=O)OCC1NC(=O)OCc1ccccc1 (centres unmarked) [Compound 30, 3-Benzyloxycarbonylamino-2,2-(C-dipropyl)-1,4-butyrolactone]
Inhibition of the radiolabeled ligands % Flu ([3]; 100 μM): 0% | Inhibition of the radiolabeled ligands % TBPS ([1]; 10 μM): 0 10 μM) % | Inhibition of the radiolabeled ligands % TBPS ([1]; 100 μM): 55% | Inhibition of the radiolabeled ligands % Muscimol [4]: 0% | activation at 1 µM ([2]; 1 μM, α1β2γ2, read-out: % of stimulation of the GABA currents): 15% | activation at 10 µM ([2]; 10 μM, α1β2γ2, read-out: % of stimulation of the GABA currents): 140% | activation at 50 µM ([2]; 50 μM, α1β2γ2, read-out: % of stimulation of the GABA currents): 250% | activation at 200 µM [2, 8]: 51%

CCCC1(CCC)C(=O)OCC1NS(=O)(=O)c1ccc(Cl)cc1 (centres unmarked) [Compound 31, 3-(p-Chlorophenylsulfonamido)-2,2-di(C-propyl)-1,4-butyrolactone]
IC50 [1]: 10 µM and ~10 µM | Inhibition of the radiolabeled ligands % Muscimol [4]: 0% | activation at 5 µM ([2]; 5 μM, α1β2γ2, read-out: % of stimulation of the GABA currents): 23% | insoluble at (concentration) ([5]; in the GABA current test): insoluble at higher concentrations | solubility ([5]; pH 7.4): > 5 µM

CCCC1(CCC)C(=O)OCC1NS(=O)(=O)c1ccc(C(F)(F)F)cc1 (centres unmarked) [Compound 32, 3-(p-Trifluoromethylphenylsulfonamido)-2,2-di(C-propyl)-1,4-butyrolactone]
stimulation of the binding of flunitrazepam (printed in the % Flu inhibition column) ([3]; 100 μM): 15-20% | Inhibition of the radiolabeled ligands % TBPS ([1]; 10 μM, anterior part of the brain): 100% | Inhibition of TBPS in the cerebellum ([1]; cerebellum): incomplete | Inhibition of the radiolabeled ligands % Muscimol [4]: 0%

CCCC1(CCC)C(=O)OCC1NS(=O)(=O)c1ccc(OC)cc1 (centres unmarked) [Compound 33, 3-(p-Methoxyphenylsulfonamido)-2,2-di(C-propyl)-1,4-butyrolactone]
stimulation of the binding of flunitrazepam (printed in the % Flu inhibition column) ([3]; 100 μM): weak | IC50 [1]: 50 µM | Inhibition of the radiolabeled ligands % Muscimol [4]: 0%

CCCC1(CCC)C(=O)OCC1NC(=O)c1ccccc1 (centres unmarked) [Compound 34]
stimulation of the binding of flunitrazepam (printed in the % Flu inhibition column) ([3]; 100 μM): weak stimulation and weak | Inhibition of the radiolabeled ligands % Muscimol [4]: 0% | activation at 2 µM [2, 9]: 17% | activation at 20 µM [2, 9]: 207% | activation at 200 µM [2, 8]: 420%

C=CCOC(=O)NC1COC(=O)C1(CCC)CCC (centres unmarked) [Compound 35, 3-Allyloxycarbonylamino-2,2-di(C-propyl)-1,4-butyrolactone]
stimulation of the binding of flunitrazepam (printed in the % Flu inhibition column) ([3]; 100 μM): weak stimulation and weak | Inhibition of the radiolabeled ligands % Muscimol [4]: 0% | times more powerful than α-EMTBL in stimulating the currents produced by GABA [2]: up to 100 times | activation at 2 µM [2, 9]: 26% | activation at 20 µM [2, 9]: 229% | activation at 200 µM [2, 8]: 765%

CCCC1(CCC)C(=O)OCC1NC(=O)OCC (centres unmarked) [Compound 36, 3-Ethyloxycarbonylamino-2,2-di(C-propyl)-1,4-butyrolactone]
Inhibition of the radiolabeled ligands % Flu ([3]; 100 μM): 0% | IC50 [1]: > 100 µM | Inhibition of the radiolabeled ligands % Muscimol [4]: 0%

CCC1(C)COC(=O)C1 (centres unmarked) [Compound 54]
convulsant or anticonvulsant effect in mice (mice): convulsant effects

CCC1(C)CCOC1=O (centres unmarked) [Compound 55]
IC50 [6]: 2300 µM | % of stimulation of GABA (concentration) ([7]; 300 μM): +101 ± 8% | convulsant or anticonvulsant effect in mice (mice): anticonvulsant properties

CCC1(CC)CCNC1=O [Compound 58]
IC50 [6]: 5800 µM | % of stimulation of GABA (concentration) ([7]; 1 μM): +137 ± 6%

CC1(CC(F)(F)F)CCSC1=O (centres unmarked) [Compound 60]
IC50 [6]: 520 µM | % of stimulation of GABA (concentration) ([7]; 300 μM): +160 ± 17%

CC1(CC(F)(F)F)CCOC1=O (centres unmarked) [Compound 61]
IC50 [6]: 3100 µM | % of stimulation of GABA (concentration) ([7]; 1 μM): +146 ± 12%
